Results on four compounds are retold here after patent US8334312B2, “Fungicidal mixtures for wood preservation” (LANXESS Deutschland GmbH, priority 2005, dated 2012).

Holding throughout (experiment): Mycelium radial growth inhibition on malt extract/peptone agar (MIC) and Kull synergism
Holding throughout (assay type): cell-based

One assay relates to Coniophora puteana. The note with it: 26° C. agar. The procedure:
(§1) Mycelium pieces were punched out of colonies of the wood-destroying organisms Coriolus versicolor, Poria placenta, Gloeophyllum trabeum and Cornophora puteana and incubated at 26° C. on a malt extract/peptone-containing nutrient agar. Here, the growth of the fungal threads with and without added active compound was compared. The stated minimum inhibitory concentration (MIC) is the active compound concentration at which the radial growth of the fungal threads is suppressed completely. Using the method described by Kull et al. (F. C. Kull, […]. Mayer, Applied Microbiology 9, 538 to 541, 1961), the synergism was determined. Here, the following relations apply: […]

The test system of the next assay is Coriolus versicolor. As to conditions: for Qb = concentration of substance B which is the MIC: b = triadimefon alone; for Qa = concentration of substance A which is the MIC: 26° C. agar. The procedure: as §1
Another assay relates to Gloeophyllum trabeum. On the procedure: as §1
The next assay has as its system Poria placenta. As to conditions: 26° C. agar. The procedure:
as §1

On to `CC(C)(C)C(=O)C(Oc1ccc(Cl)cc1)n1cncn1` (racemic) [triadimefon, (±)-1-(4-chlorophenoxy)-3,3-dimethyl-1-(1H-1,2,4-triazol-1-yl)butan-2-one], for which the “Qb = concentration of substance B which is the MIC” value in the assay on Coniophora puteana (b = triadimefon alone) came out at 30; in the assay with Coriolus versicolor (26° C. agar (Example 2)), 6; in the assay on Coriolus versicolor (26° C. agar (Example 3)) it was 3; in the assay with Gloeophyllum trabeum (b = triadimefon alone, 26° C. agar), 30; in the assay on Poria placenta (b = triadimefon alone), 3.
With `CC(C)(C)C(O)C(Oc1ccc(Cl)cc1)n1cncn1` (racemic) [triadimenol, (±)-1-(4-chlorophenoxy)-3,3-dimethyl-1-(1H-1,2,4-triazol-1-yl) butan-2-ole], the “Qa = concentration of substance A which is the MIC” value (“Qa = concentration” below) in the assay on Gloeophyllum trabeum (a = triadimenol alone, 26° C. agar) turned out to be 1; in the assay with Poria placenta (a = triadimenol alone), 1.
For the compound `CCCC1COC(Cn2cncn2)(c2ccc(Cl)cc2Cl)O1` (centres unmarked) [propiconazole], the “Qa = concentration” value in the assay on Coriolus versicolor (a = propiconazole alone) was 3; in the assay with Poria placenta (a = propiconazole alone) it was 1.
In the case of `CC(C)(C)C(O)(CCc1ccc(Cl)cc1)Cn1cncn1` (centres unmarked) [tebuconazole], the “Qa = concentration” value was determined as 6 with Coniophora puteana (a = tebuconazole alone); 0.3 with Coriolus versicolor (a = tebuconazole alone); 0.5 in the assay with Gloeophyllum trabeum (a = tebuconazole alone, 26° C. agar (Example 3)). Also, the “Qb = concentration of substance B which is the MIC” value was found to be 0.7 in the assay with Gloeophyllum trabeum (b = tebuconazole alone, 26° C. agar (Example 1)) and 1 with Poria placenta (b = tebuconazole alone).
